Reference: patent US4652560A, “A-deoxy-a-aza derivatives of clavulanic acid, a process for their preparation and their use” (Beecham Group p.l.c., priority 1979, dated 1987)

Test system: E coli JT39
Experiment: Antibacterial Activity, standard MIC test
Assay type: cell-based
Conditions: Escherichia coli, compound alone
Description: Using conventional methods the following results were obtained in a standard MIC test: […]

Structure (SMILES): O=C(O)CCCCCCCCCCNC/C=C1\O[C@@H]2CC(=O)N2[C@H]1C(=O)O [11 (b), 9-N-(10'-Carboxydecyl)aminodeoxyclavulanic acid]
- MIC: > 500 µg/mL
